Values of other authors as cited in EP0424553A1, “Substituted phenoxy alkanols for treatment of contact hypersensitivity” (priority 1989, dated 1991).

Legend:
rat mast cells = conditions: mediated by IgE- anti-IgE reaction
[1] = tested on: anaphylactic histamine release; conditions: compared with chlorphenesin

| Compound | degranulation of the rat mast cells (rat mast cells) | anaphylactic histamine release-preventive effect [1] |
| --- | --- | --- |
| O=C(O)c1cc(=O)c2c(OCC(O)COc3cccc4oc(C(=O)O)cc(=O)c34)cccc2o1 [cromolyn sodium] | inhibited |  |
| chlorphenesin succinate |  | much superior to chlorphenesin |
